What follows are compounds tested against SUV420H1 enzyme (Homo sapiens, UniProt Q4FZB7) (assay: TR-FRET SAH SUV420H1 enzyme inhibition assay). Details: Histone Peptide H4(8-30)me1 and SAM, overnight at room temp, TR-FRET detection of SAH, read-out: TR-FRET SAH_SUV420H1 IC50.
Type: biochemical
How it was run: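 SUV420H1 (90 nM) preincubated 30 min with compound (3-fold dilutions, 50 to 0.00075 μM), then H4(8-30)me1 peptide 5 nM and SAM 4 nM added, overnight at room temp. SAH product detected by TR-FRET with Tb anti-SAH antibody and Oregon Green-SAH in RIPA buffer, 4 h; IC50 from Hill fit, asymptotes fixed 0-100%.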

Sequence of SUV420H1 enzyme (Q4FZB7 whole entry): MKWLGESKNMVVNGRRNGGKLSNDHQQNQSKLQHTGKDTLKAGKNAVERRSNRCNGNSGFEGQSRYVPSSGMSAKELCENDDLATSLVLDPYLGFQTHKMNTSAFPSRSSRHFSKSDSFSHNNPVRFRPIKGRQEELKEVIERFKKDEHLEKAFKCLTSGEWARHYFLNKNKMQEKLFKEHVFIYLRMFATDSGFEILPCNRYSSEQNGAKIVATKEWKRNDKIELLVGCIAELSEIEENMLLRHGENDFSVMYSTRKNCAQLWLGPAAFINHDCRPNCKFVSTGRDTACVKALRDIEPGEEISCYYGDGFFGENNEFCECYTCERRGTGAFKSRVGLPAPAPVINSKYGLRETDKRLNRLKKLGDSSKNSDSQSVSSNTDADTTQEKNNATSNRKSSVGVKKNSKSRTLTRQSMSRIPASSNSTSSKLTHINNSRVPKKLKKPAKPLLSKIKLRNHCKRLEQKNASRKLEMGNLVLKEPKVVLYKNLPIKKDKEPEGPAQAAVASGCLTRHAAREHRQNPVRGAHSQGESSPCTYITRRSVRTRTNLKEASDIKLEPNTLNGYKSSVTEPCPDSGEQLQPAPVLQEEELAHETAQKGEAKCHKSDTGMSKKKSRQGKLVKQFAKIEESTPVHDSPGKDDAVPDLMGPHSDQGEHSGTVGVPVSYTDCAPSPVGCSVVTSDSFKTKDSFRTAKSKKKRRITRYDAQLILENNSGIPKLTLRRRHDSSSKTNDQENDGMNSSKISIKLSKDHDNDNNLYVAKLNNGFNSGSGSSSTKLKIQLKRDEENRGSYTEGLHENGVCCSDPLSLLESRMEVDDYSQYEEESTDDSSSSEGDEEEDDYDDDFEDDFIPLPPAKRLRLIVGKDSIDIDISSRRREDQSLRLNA

Row | SMILES | IC50 [nM]
1 | Cc1nc2cc(C(=O)NCc3cc4cc(Cl)cc(Cn5cnc6c(N)ncnc65)c4[nH]3)ccc2[nH]1 [Example 363, N-({7-[(6-amino-9H-purin-9-yl)methyl]-5-chloro-1H-indol-2-yl}methyl)-2-methyl-1H-benzimidazole-5-carboxamide] | 4300
2 | Cc1cc2cc(C(=O)NCc3cc4cc(Cl)cc(Cn5cnc6c(N)ncnc65)c4[nH]3)ccc2o1 [Example 364, N-({7-[(6-amino-9H-purin-9-yl)methyl]-5-chloro-1H-indol-2-yl}methyl)-2-methyl-1-benzofuran-5-carboxamide] | 3280
3 | Cn1ccc2ccc(C(=O)NCc3cc4cc(Cl)cc(Cn5cnc6c(N)ncnc65)c4[nH]3)cc21 [Example 365] | 1880
4 | Cn1ccc2cc(C(=O)NCc3cc4cc(Cl)cc(Cn5cnc6c(N)ncnc65)c4[nH]3)ccc21 [Example 366, N-({7-[(6-amino-9H-purin-9-yl)methyl]-5-chloro-1H-indol-2-yl}methyl)-1-methyl-1H-indole-5-carboxamide] | 2870
5 | Cc1nc2cc(C(=O)NCc3cc4cc(Cl)cc(Cn5cnc6c(N)ncnc65)c4[nH]3)ccc2n1C [Example 367, N-({7-[(6-amino-9H-purin-9-yl)methyl]-5-chloro-1H-indol-2-yl}methyl)-1,2-dimethyl-1H-benzimidazole-5-carboxamide] | 591
6 | CCc1nc2ccc(C(=O)NCc3cc4cc(Cl)cc(Cn5cnc6c(N)ncnc65)c4[nH]3)cc2[nH]1 [Example 368, N-({7-[(6-amino-9H-purin-9-yl)methyl]-5-chloro-1H-indol-2-yl}methyl)-2-ethyl-1H-benzimidazole-6-carboxamide] | 7610
7 | N#Cc1c[nH]c2ccc(C(=O)NCc3cc4cc(Cl)cc(Cn5cnc6c(N)ncnc65)c4[nH]3)cc12 [Example 369, N-({7-[(6-amino-9H-purin-9-yl)methyl]-5-chloro-1H-indol-2-yl}methyl)-3-cyano-1H-indole-5-carboxamide] | > 50000
8 | CC(C)c1noc2ncc(C(=O)NCc3cc4cc(Cl)cc(Cn5cnc6c(N)ncnc65)c4[nH]3)cc12 [Example 370, N-({7-[(6-amino-9H-purin-9-yl)methyl]-5-chloro-1H-indol-2-yl}methyl)-3-(propan-2-yl)[1,2]oxazolo[5,4-b]pyridine-5-carboxamide] | 1690
9 | CC(C)n1nnc2cc(C(=O)NCc3cc4cc(Cl)cc(Cn5cnc6c(N)ncnc65)c4[nH]3)ccc21 [Example 371, N-({7-[(6-amino-9H-purin-9-yl)methyl]-5-chloro-1H-indol-2-yl}methyl)-1-(propan-2-yl)-1H-benzotriazole-5-carboxamide] | 21500
10 | CC(C)n1ncc2cc(C(=O)NCc3cc4cc(Cl)cc(Cn5cnc6c(N)ncnc65)c4[nH]3)cnc21 [Example 372, N-({7-[(6-amino-9H-purin-9-yl)methyl]-5-chloro-1H-indol-2-yl}methyl)-1-(propan-2-yl)-1H-pyrazolo[3,4-b]pyridine-5-carboxamide] | 970
11 | COc1c(C(=O)NCc2cc3cc(Cl)cc(Cn4cnc5c(N)ncnc54)c3[nH]2)cnc2c1c(C)nn2C [Example 373, N-({7-[(6-amino-9H-purin-9-yl)methyl]-5-chloro-1H-indol-2-yl}methyl)-4-methoxy-1,3-dimethyl-1H-pyrazolo[3,4-b]pyridine-5-carboxamide] | 84.4
12 | Cc1[nH]c2cc(C(=O)NCc3cc4cc(Cl)cc(Cn5cnc6c(N)ncnc65)c4[nH]3)ccc2c1C [Example 374, N-({7-[(6-amino-9H-purin-9-yl)methyl]-5-chloro-1H-indol-2-yl}methyl)-2,3-dimethyl-1H-indole-6-carboxamide] | 261
13 | Cc1[nH]c2ccc(C(=O)NCc3cc4cc(Cl)cc(Cn5cnc6c(N)ncnc65)c4[nH]3)cc2c1C [Example 375, N-({7-[(6-amino-9H-purin-9-yl)methyl]-5-chloro-1H-indol-2-yl}methyl)-2,3-dimethyl-1H-indole-5-carboxamide] | 12400
14 | Cc1nc2cc(C(=O)NCc3cc4cc(Cl)cc(Cn5cnc6c(N)ncnc65)c4[nH]3)ccc2n1CCO [Example 376, N-({7-[(6-amino-9H-purin-9-yl)methyl]-5-chloro-1H-indol-2-yl}methyl)-1-(2-hydroxyethyl)-2-methyl-1H-benzimidazole-5-carboxamide] | 2950
15 | Cc1nc2c(cnn2C(C)C)cc1C(=O)NCc1cc2cc(Cl)cc(Cn3cnc4c(N)ncnc43)c2[nH]1 [Example 377, N-({7-[(6-amino-9H-purin-9-yl)methyl]-5-chloro-1H-indol-2-yl}methyl)-6-methyl-1-(propan-2-yl)-1H-pyrazolo[3,4-b]pyridine-5-carboxamide] | 2710
16 | Cc1c(C)n(C)c2ccc(C(=O)NCc3cc4cc(Cl)cc(Cn5cnc6c(N)ncnc65)c4[nH]3)cc12 [Example 378, N-({7-[(6-amino-9H-purin-9-yl)methyl]-5-chloro-1H-indol-2-yl}methyl)-1,2,3-trimethyl-1H-indole-5-carboxamide] | 6260
17 | CCCCc1nc2cc(C(=O)NCc3cc4cc(Cl)cc(Cn5cnc6c(N)ncnc65)c4[nH]3)ccc2o1 [Example 379, N-({7-[(6-amino-9H-purin-9-yl)methyl]-5-chloro-1H-indol-2-yl}methyl)-2-butyl-1,3-benzoxazole-5-carboxamide] | 765

From US9932340B2, “Substituted indoles” (AbbVie Inc., priority 2014, dated 2018)
